Laboratory results taken from patent US6989384B2, “Antipicornaviral compounds and compositions, their pharmaceutical uses, and materials for their synthesis” (Agouron Pharmaceuticals, Inc., priority 2000, dated 2006).
Read-outs that look alike come from different tables or passages of the source.

How the values were obtained:
[1] = molecular target: T1, rhinovirus 3C protease from HRV serotype-14 (Human rhinovirus 14, UniProt P03303); assay: Inhibition of rhinovirus 3C protease activity (FRET assay), HRV-14; format: biochemical; conditions: read-out: Protease Inhibition kobs/I
T1 construct: Recombinant rhinovirus 3C proteases; made in house
T1 sequence (P03303 1538-1719): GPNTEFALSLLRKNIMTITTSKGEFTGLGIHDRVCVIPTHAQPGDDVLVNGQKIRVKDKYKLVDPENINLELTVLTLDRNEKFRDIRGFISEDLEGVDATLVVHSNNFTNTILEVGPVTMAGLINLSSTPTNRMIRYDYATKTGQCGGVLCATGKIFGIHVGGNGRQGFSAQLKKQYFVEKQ
Experimental: Stock solutions (50 mM, in DMSO) of various compounds were prepared; dilutions were in the same solvent. Recombinant rhinovirus 3C proteases (see Birch et al., “Purification of recombinant human rhinovirus 14 3C protease expressed in Escherichia coli,” Protein Expr. Pur. 1995, 6(5), 609–618) from serotypes 14, 16, and 2 were prepared by the following standard chromatographic procedures: (1) ion exchange using Q Sepharose Fast Flow from Pharmacia; (2) affinity chromatography using Affi-Gel Blue from Biorad; and (3) sizing using Sephadex G-100 from Pharmacia. Each assay sample contained 2% DMSO, 50 mM tris pH 7.6, 1 mM EDTA, a test compound at the indicated concentration, approximately 1 μM substrate, and 50–100 nM protease. The kobs/I values were obtained from reactions initiated by addition of enzyme rather than substrate. RVP activity was measured in the fluorescence resonance energy transfer assay. The substrate was (N-terminal) DABCYL-(Gly-Arg-Ala-Val-Phe-Gln-Gly-Pro-Val-Gly)-EDANS. In the uncleaved peptide, the EDANS fluorescence was quenched by the proximal DABCYL group. When the peptide was cleaved, the quenching was relieved, and activity was measured as an increase in fluorescence signal. In the Table, unless otherwise indicated, all data are for rhinovirus 3C protease from HRV serotype-14 (produced from the infectious cDNA clone constructed by Dr. Robert Rueckert, Institute for Molecular Virology, University of Wisconsin, Madison, Wis.). The data in the column designated kobs/[I] were measured from progress curves in enzyme start experiments.

[2] = Cytotoxicity in mock-infected H1-HeLa cells (XTT); format: cell-based; conditions: human, two days, read-out: Toxicity CC50
Experimental: (§1) In this cell protection assay, the ability of compounds to protect cells against HRV infection was measured by the XTT dye reduction method, which is described in Weislow et al., J. Natl. Cancer Inst. 1989, vol. 81, 577–586.
(§2) H1-HeLa cells were infected with HRV-14 at a multiplicity of infection (m.o.i.) of 0.13 (virus particles/cell) or mock-infected with medium only. Infected or mock-infected cells were resuspended at 8×10^5 cells per mL, and incubated with appropriate concentrations of the compounds to be tested. Two days later, XTT/PMS was added to test plates and the amount of formazan produced was quantified spectrophotometrically at 450/650 nm. The EC50 value was calculated as the concentration of compound that increased the percentage of formazan production in compound-treated, virus-infected cells to 50% of that produced by compound-free, mock-infected cells. The 50% cytotoxic dose (CC50) was calculated as the concentration of compound that decreased the percentage of formazan produced in compound-treated, mock-infected cells to 50% of that produced by compound-free, mock-infected cells.
(§3) All strains of human rhinovirus (HRV) for use in this assay were purchased from American Type Culture Collection (ATCC), except for HRV serotype-14 (produced from the infectious cDNA clone constructed by Dr. Robert Rueckert, Institute for Molecular Virology, University of Wisconsin, Madison, Wis.). HRV stocks were propagated and viral assays were performed in H1-HeLa cells (ATCC). Cells were grown in minimal essential medium with 10% fetal bovine serum, available from Life Technologies (Gaithersburg, Md.).

HRV-14 = assay: Antirhinoviral H1-HeLa cell culture assay (cell protection, XTT), HRV-14; format: cell-based, human rhinovirus; conditions: Rhinovirus B, read-out: Cell Protection EC50
Experimental: as §1, §2, §3
The compounds were tested against control compounds WIN 51711, WIN 52084, and WIN 54954 (obtained from Sterling-Winthrop Pharmaceuticals), Pirodavir (obtained from Janssen Pharmaceuticals), and Pleconaril (prepared according to the method described in Diana et al., J. Med. Chem 1995, vol. 38, 1355). Antiviral data obtained for the test compounds are shown in the Table, where all data are for HRV serotype-14 unless otherwise noted in parentheses.

[3] = HRV-14 3C protease, progress curves, enzyme start
[4] = HRV14, 48 h, HRV-14, H1-HeLa cells, XTT, two days

Row | SMILES | kinact/KI [1, 3] | EC50 (HRV-14; [4]) | kinact/KI [1] | CC50 at 2 days [2] | EC50 (HRV-14; HRV14, H1-HeLa, 48 h)
1 | CCOC(=O)/C=C/[C@H](C[C@@H]1CCNC1=O)NC(=O)c1cc(-c2ccccc2)oc1C [Compound 45, 4S-[(2-Methyl-5-phenyl-furan-3-carbonyl)-amino]-5-(2-oxo-pyrrolidin-3S-yl)-pent-2-enoic acid ethyl ester] | – | – | 4740 M⁻¹ s⁻¹ | > 100 µM | 1.94 µM
2 | CCOC(=O)/C=C/[C@H](C[C@@H]1CCNC1=O)NC(=O)/C=C/c1ccc(C)cc1 [Compound 12, 5-(2-oxo-pyrrolidin-3S-yl)-4S-(3-p-tolyl-acryloylamino)-pent-2-enoic acid ethyl ester] | – | – | 990 M⁻¹ s⁻¹ | > 10 µM | 2.77 µM
3 | CCOC(=O)/C=C/[C@H](C[C@@H]1CCNC1=O)NC(=O)c1ccc2cc(C)ccc2c1 [Compound 51, 4S-[(6-Methyl-naphthalene-2-carbonyl)-amino]-5-(2-oxo-pyrrolidin-3S-yl)-pent-2-enoic acid ethyl ester] | – | – | 5020 M⁻¹ s⁻¹ | > 100 µM | 0.88 µM
4 | CCOC(=O)/C=C/[C@H](C[C@@H]1CCNC1=O)NC(=O)/C=C/c1ccc(F)c(Br)c1 [Compound 48, 4S-[3-(3-Bromo-4-fluoro-phenyl)-acryloylamino]-5-(2-oxo-pyrrolidin-3S-yl)-pent-2-enoic acid ethyl ester] | – | – | 2860 M⁻¹ s⁻¹ | > 100 µM | 0.625 µM
5 | CCOC(=O)/C=C/[C@H](C[C@@H]1CCNC1=O)NC(=O)c1cc2cc(OC)ccc2[nH]1 [Compound 41, 4S-[(5-Methoxy-1H-indole-2-carbonyl)-amino]-5-(2-oxo-pyrrolidin-3S-yl)-pent-2-enoic acid ethyl ester] | – | – | 2190 M⁻¹ s⁻¹ | > 100 µM | 2.36 µM
6 | CCOC(=O)/C=C/[C@H](C[C@@H]1CCNC1=O)NC(=O)/C=C/c1ccc2c(c1)OCO2 [Compound 9, 4S-(3-benzo[1,3]dioxol-5-yl-acryloylamino)-5-(2-oxo-pyrrolidin-3S-yl)-pent-2-enoic acid ethyl ester] | – | – | 1960 M⁻¹ s⁻¹ | > 10 µM | 1.81 µM
7 | CCOC(=O)/C=C/[C@H](C[C@@H]1CCNC1=O)NC(=O)/C=C/c1ccc([N+](=O)[O-])cc1 [Compound 15, 4S-[3-(4-nitro-phenyl)-acryloylamino]-5-(2-oxo-pyrrolidin-3S-yl)-pent-2-enoic acid ethyl ester] | – | – | 2020 M⁻¹ s⁻¹ | > 10 µM | 1.53 µM
8 | CCOC(=O)/C=C/[C@H](C[C@@H]1CCNC1=O)NC(=O)c1cc2cc(C)ccc2[nH]1 [Compound 43, 4-[(5-Methyl-1H-indole-2-carbonyl)-amino]-5-(2-oxo-pyrrolidin-3-yl)-pent-2-enoic acid ethyl ester] | – | – | 3460 M⁻¹ s⁻¹ | > 100 µM | 2.14 µM
9 | CCOC(=O)/C=C/[C@H](C[C@@H]1CCNC1=O)NC(=O)N[C@@H](CC(C)C)C(=O)OCC [Compound 24, 4S-[3-(1S-ethoxycarbonyl-3-methyl-butyl)-ureido]-5-(2-oxo-pyrrolidin-3S-yl)-pent-2-enoic acid ethyl ester] | – | – | 1050 M⁻¹ s⁻¹ | > 10 µM | 4.6 µM
10 | CCOC(=O)/C=C/[C@H](C[C@@H]1CCNC1=O)NC(=O)c1cc2cc(CC)ccc2[nH]1 [Compound 8, 4S-[(5-ethyl-1H-indole-2-carbonyl)-amino]-5-(2-oxo-pyrrolidin-3S-yl)-pent-2-enoic acid ethyl ester] | – | – | 980 M⁻¹ s⁻¹ | > 10 µM | 2.67 µM
11 | CCOC(=O)/C=C/[C@H](C[C@@H]1CCNC1=O)NC(=O)/C=C/c1ccc(C)c(Br)c1 [Compound 23, 4S-[3-(3-bromo-4-methyl-phenyl)-acryloylamino]-5-(2-oxo-pyrrolidin-3S-yl)-pent-2-enoic acid ethyl ester] | – | – | 4080 M⁻¹ s⁻¹ | > 10 µM | 1.29 µM
12 | CCOC(=O)/C=C/[C@H](CCC(N)=O)NC(=O)c1ccccc1COC(=O)c1ccccc1 [Compound 36] | 10 M⁻¹ s⁻¹ | > 100 µM | – | > 100 µM | –
13 | CCOC(=O)c1ccc(OCCC2CCN(c3ccc(C)nn3)CC2)cc1 [Pirodavir, reference compound] | – | 0.03 µM | – | > 10 µM | –
14 | Cc1cc(CCCOc2c(C)cc(-c3noc(C(F)(F)F)n3)cc2C)on1 [Pleconaril, reference compound] | – | 0.01 µM | – | > 10 µM | –

Now from value to compound, other results behind:

Row | kinact/KI [1, 3] | EC50 (HRV-14; [4]) | SMILES | kinact/KI [1] | CC50 at 2 days [2] | EC50 (HRV-14; HRV14, H1-HeLa, 48 h)
15 | 345 M⁻¹ s⁻¹ | 3.2 µM | CCOC(=O)/C=C/[C@H](CCC(N)=O)NC(=O)/C=C/c1cccc(Br)c1 [Compound 30, 4S-[3-(3-bromophenyl)-acryloylamino]-6-carbamoyl-hex-2-enoic acid ethyl ester] | – | > 100 µM | –
16 | 64 M⁻¹ s⁻¹ | 14.1 µM | CCOC(=O)/C=C/[C@H](CCC(N)=O)NC(=O)c1cnc2ccccc2n1 [Compound 28, 6-carbamoyl-4S-[(quinoxaline-2-carboxyl)-amino]-hex-2-enoic acid ethyl ester] | – | > 100 µM | –
17 | 71 M⁻¹ s⁻¹ | 1 µM | CCOC(=O)/C=C/[C@H](CCC(N)=O)NC(=O)c1cc2ccccc2[nH]1 [Compound 38, 6-carbamyl-4S-[(1H-indole-2-carbonyl)-amino]-hex-2-enoic acid ethyl ester] | – | > 100 µM | –
18 | 10 M⁻¹ s⁻¹ | > 100 µM | CCOC(=O)/C=C/[C@H](CCC(N)=O)NC(=O)c1ccccc1 [Compound 34] | – | > 100 µM | –
19 | 35 M⁻¹ s⁻¹ | > 100 µM | CCOC(=O)/C=C/[C@H](CCC(N)=O)NC(=O)c1ccc(Cl)c(Cl)c1 [Compound 35, 6-carbamoyl-4S-(3,4-dichloro-benzoylamino)-hex-2-enoic acid ethyl ester] | – | 100 µM | –
20 | 62 M⁻¹ s⁻¹ | 31.6 µM | CCOC(=O)/C=C/[C@H](CCC(N)=O)NC(=O)/C=C/c1ccccc1 [Compound 29, 6-carbamoyl-4S-(3-phenyl-acryloylamino)-hex-2-enoic acid ethyl ester] | – | > 100 µM | –
21 | 27 M⁻¹ s⁻¹ | 12.6 µM | CCOC(=O)/C=C/[C@H](CCC(N)=O)NC(=O)c1cc(C(C)(C)C)nn1Cc1ccccc1 [Compound 33, 4S-[(2-benzyl-5-tert-butyl-2H-pyrazole-3-carbonyl)-amino]-6-carbamoyl-hex-2-enoic acid ethyl ester] | – | > 100 µM | –
22 | 6 M⁻¹ s⁻¹ | > 100 µM | CCOC(=O)/C=C/[C@H](CCC(N)=O)NC(=O)c1ccccc1CCc1ccccc1 [Compound 37, 6-carbamoyl-4S-(2-phenethyl-benzoylamino)-hex-2-enoic acid ethyl ester] | – | > 100 µM | –
23 | 83 M⁻¹ s⁻¹ | 1.8 µM | CCOC(=O)/C=C/[C@H](CCC(N)=O)NC(=O)c1nn(-c2ccccc2)nc1C [Compound 32, 6-carbamoyl-4S-[(5-methyl-2-phenyl-2H-[1,2,3]triazole-4-carbonyl)-amino]-hex-2-enoic acid ethyl ester] | – | > 100 µM | –
24 | 45 M⁻¹ s⁻¹ | 3.9 µM | CCOC(=O)/C=C/[C@H](CCC(N)=O)NC(=O)c1ccc(N(C)C)cc1 [Compound 27] | – | > 100 µM | –
25 | 110 M⁻¹ s⁻¹ | 7.1 µM | CCOC(=O)/C=C/[C@H](CCC(N)=O)NC(=O)c1ccc2ccccc2n1 [Compound 31, 6-carbamoyl-4S-[(quinoline-2-carbonyl)-amino]-hex-2-enoic acid ethyl ester] | – | > 100 µM | –
